Measured values as given in paper PMC5813499 (Bioorganic & medicinal chemistry, 2017).

What was measured:
[1] = molecular target: allosteric site of the mGluR5 receptor (Homo sapiens, UniProt P41594); experiment: PDSP binding at the allosteric site of the mGluR5 receptor; details: binding affinity at allosteric site; type of constant not given
[2] = molecular target: L-type Voltage gated calcium Channel (VGCC) (Rattus norvegicus, UniProt P22002); experiment: PDSP binding at the L-type voltage gated calcium channel; details: for VGCC (IC50, nM): PDSP screening
Sequence of L-type Voltage gated calcium Channel (VGCC) (P22002 whole entry): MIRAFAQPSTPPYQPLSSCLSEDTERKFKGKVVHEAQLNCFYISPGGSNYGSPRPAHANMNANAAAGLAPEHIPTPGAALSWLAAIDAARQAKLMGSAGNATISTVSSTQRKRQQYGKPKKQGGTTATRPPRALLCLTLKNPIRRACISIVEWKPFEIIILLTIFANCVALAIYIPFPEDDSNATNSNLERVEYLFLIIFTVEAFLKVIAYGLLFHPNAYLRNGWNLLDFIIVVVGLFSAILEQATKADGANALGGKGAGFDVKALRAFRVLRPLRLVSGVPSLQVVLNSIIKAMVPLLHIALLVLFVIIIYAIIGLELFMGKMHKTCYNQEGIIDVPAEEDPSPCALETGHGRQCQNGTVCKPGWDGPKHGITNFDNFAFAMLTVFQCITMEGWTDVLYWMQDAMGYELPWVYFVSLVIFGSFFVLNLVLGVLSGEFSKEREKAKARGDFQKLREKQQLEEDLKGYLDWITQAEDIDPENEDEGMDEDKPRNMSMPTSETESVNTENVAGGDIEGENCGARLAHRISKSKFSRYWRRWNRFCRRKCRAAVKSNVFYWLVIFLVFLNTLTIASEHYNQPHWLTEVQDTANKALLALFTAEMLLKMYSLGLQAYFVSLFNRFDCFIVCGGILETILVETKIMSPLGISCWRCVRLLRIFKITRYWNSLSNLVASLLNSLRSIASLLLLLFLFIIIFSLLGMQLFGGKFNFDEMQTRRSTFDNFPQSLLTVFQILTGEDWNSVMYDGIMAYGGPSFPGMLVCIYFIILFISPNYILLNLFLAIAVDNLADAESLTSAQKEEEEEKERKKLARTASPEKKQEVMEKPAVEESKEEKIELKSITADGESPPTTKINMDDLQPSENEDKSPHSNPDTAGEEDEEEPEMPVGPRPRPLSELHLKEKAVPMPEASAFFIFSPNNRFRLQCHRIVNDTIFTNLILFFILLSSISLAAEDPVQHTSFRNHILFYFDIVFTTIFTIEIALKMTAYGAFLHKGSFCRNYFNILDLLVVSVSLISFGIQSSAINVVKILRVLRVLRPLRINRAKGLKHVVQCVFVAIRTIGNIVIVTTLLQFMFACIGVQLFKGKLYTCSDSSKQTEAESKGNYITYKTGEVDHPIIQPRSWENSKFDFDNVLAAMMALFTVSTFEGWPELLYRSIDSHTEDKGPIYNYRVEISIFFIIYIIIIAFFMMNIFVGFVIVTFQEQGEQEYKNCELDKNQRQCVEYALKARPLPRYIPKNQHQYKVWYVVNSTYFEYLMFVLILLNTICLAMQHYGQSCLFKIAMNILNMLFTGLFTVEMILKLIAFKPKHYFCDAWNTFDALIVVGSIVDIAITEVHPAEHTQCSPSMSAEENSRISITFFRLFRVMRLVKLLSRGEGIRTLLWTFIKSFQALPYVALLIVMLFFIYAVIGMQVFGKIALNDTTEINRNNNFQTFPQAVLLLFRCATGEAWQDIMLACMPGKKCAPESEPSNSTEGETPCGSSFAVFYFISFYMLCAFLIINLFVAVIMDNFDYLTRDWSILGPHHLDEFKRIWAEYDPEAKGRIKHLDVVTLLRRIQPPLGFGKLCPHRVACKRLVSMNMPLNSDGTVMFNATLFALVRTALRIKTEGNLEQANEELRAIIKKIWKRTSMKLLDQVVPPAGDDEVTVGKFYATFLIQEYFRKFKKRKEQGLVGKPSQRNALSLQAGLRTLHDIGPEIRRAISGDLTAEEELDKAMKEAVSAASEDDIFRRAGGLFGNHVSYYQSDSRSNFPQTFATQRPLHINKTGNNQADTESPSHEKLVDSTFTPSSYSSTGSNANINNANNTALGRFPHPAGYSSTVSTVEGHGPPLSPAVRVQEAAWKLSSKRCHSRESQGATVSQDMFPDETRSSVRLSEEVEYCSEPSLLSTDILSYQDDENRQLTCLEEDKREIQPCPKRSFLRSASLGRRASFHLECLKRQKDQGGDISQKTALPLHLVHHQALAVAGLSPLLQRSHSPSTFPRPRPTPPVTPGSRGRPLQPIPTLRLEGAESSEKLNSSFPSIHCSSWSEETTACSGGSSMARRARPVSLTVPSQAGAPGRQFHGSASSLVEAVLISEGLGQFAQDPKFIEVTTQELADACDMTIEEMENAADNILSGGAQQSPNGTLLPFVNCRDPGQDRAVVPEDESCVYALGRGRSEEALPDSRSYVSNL

Sequence of allosteric site of the mGluR5 receptor (P41594 21-1212): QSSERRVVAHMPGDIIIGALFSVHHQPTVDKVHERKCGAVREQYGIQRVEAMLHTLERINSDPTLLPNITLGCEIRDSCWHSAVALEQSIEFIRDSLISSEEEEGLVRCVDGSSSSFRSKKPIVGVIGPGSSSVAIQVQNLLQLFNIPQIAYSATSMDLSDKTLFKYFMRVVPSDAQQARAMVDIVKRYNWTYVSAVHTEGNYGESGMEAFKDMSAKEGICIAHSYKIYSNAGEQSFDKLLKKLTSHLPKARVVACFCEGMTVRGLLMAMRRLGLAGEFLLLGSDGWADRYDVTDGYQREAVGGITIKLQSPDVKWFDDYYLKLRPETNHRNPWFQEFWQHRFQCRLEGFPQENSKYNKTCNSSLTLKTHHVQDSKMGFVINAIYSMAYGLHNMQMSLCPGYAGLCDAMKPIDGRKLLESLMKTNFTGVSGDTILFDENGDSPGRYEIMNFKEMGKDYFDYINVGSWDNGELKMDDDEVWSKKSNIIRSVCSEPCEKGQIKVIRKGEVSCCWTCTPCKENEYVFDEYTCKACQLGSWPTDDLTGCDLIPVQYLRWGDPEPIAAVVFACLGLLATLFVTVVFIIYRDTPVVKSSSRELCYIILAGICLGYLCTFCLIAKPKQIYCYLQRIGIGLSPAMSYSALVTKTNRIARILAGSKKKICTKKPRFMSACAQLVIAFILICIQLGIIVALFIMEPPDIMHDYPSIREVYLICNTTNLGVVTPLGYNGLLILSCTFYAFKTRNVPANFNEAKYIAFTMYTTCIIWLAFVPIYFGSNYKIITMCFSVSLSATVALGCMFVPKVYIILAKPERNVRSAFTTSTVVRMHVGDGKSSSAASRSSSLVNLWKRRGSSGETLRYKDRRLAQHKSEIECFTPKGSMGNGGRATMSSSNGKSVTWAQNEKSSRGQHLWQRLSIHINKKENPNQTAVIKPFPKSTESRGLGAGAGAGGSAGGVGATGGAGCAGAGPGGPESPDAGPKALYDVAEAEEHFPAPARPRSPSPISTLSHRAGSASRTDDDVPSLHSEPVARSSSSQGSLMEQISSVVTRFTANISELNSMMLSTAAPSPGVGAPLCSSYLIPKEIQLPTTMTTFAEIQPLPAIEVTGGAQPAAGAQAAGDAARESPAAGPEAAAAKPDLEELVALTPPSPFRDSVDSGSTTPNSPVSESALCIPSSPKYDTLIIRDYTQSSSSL

Compound | mGluR5 (nM) [1] | mGluR5 [1] [µM] | other results
CCOC(=O)C1=C(C)NC(C)=C(C(=O)OCc2cn(CCc3ccccc3)nn2)C1c1c(-c2ccc(Br)cc2)noc1C (stereo not shown) [compound 5, 4-[3-(p-Bromo-phenyl)-5-methyl-isoxazol-4-yl]-2,6-dimethyl-1,4-dihydro-pyridine 3,5-dicarboxylic acid 3-ethyl ester 5-(1-phenethyl-1H-[1,2,3]triazol-4-ylmethyl) ester] |  | 1.972 | 
CCOC(=O)c1c(C)nc(C)c(C(=O)OCC)c1-c1c(-c2ccccc2)noc1C [compound 6, 2,6-dimethyl-4-(5-methyl-3-phenyl-isoxazol-4-yl)-pyridine-3,5-dicarboxylic acid diethyl ester] |  |  | VGCC (IC50, nM) [2]: essentially bereft of activity
CCOC(=O)C1=C(C)NC(C)=C(C(=O)OCC)C1c1c(-c2cccc(Br)c2)noc1C [1c, 4-[3-(m-Bromo-phenyl)-5-methyl-isoxazol-4-yl]-2,6-dimethyl-1,4-dihydro-pyridine-3,5-dicarboxylic acid diethyl ester] | >10,000 nM |  | 
CCOC(=O)C1=C(C)NC(C)=C(C(=O)OCC)C1c1c(-c2ccc(Br)cc2)noc1C [1d, 4-[3-(p-bromo-phenyl)-5-methyl-isoxazol-4-yl]-2,6-dimethyl-1,4-dihydro-pyridine-3,5-dicarboxylic acid diethyl ester] | >10,000 nM |  | VGCC potency ratio of 1d versus o-Br 1b ([2]; fold more potent than 1b): over 25 times
CCOC(=O)C1=C(C)NC(C)=C(C(=O)OCC)C1c1c(-c2ccccc2Br)noc1C [1b, 4-[3-(o-Bromo-phenyl)-5-methyl-isoxazol-4-yl]-2,6-dimethyl-1,4-dihydro-pyridine-3,5-dicarboxylic acid diethyl ester] |  | 1.524 | 

Now from value to compound, other results behind:

mGluR5 (nM) [1] | mGluR5 [1] [µM] | Compound | other results
>10,000 nM |  | CCOC(=O)C1=C(C)NC(C)=C(C(=O)OCc2cn(CCOCCOCCOCCOCCOCCn3cc(COC(=O)C4=C(C)NC(C)=C(C(=O)OCC)C4c4c(-c5ccccc5)noc4C)nn3)nn2)C1c1c(-c2ccccc2)noc1C (stereo not shown) [4a, 3-(1-{17-[4-({[5-(Ethoxycarbonyl)-2,6-dimethyl-4-(5-methyl-3-phenyl-1,2-oxazol-4-yl)-1,4-dihydropyridin-3-yl]carbonyloxy}methyl)-1H-1,2,3-triazol-1-yl]-3,6,9,12,15-pentaoxaheptadecan-1-yl}-1H-1,2,3-triazol-4-yl)methyl 5-ethyl 2,6-dimethyl-4-(5-methyl-3-phenyl-1,2-oxazol-4-yl)-1,4-dihydropyridine-3,5-dicarboxylate] | 
 | 8.638 | CCOC(=O)C1=C(C)NC(C)=C(C(=O)OCc2cn(CCOCCOCCOCCOCCOCCn3cc(COC(=O)C4=C(C)NC(C)=C(C(=O)OCC)C4c4c(-c5cccc(Br)c5)noc4C)nn3)nn2)C1c1c(-c2cccc(Br)c2)noc1C (stereo not shown) [4c, 3-[1-(17-{4-[({4-[3-(m-bromophenyl)-5-methyl-1,2-oxazol-4-yl]-5-(ethoxycarbonyl)-2,6-dimethyl-1,4-dihydropyridin-3-yl}carbonyloxy)methyl]-1H-1,2,3-triazol-1-yl}-3,6,9,12,15-pentaoxaheptadecan-1-yl)-1H-1,2,3-triazol-4-yl]methyl 5-ethyl 4-[3-(m-bromophenyl)-5-methyl-1,2-oxazol-4-yl]-2,6-dimethyl-1,4-dihydropyridine-3,5-dicarboxylate] | 
 | 4.858 | CCOC(=O)C1=C(C)NC(C)=C(C(=O)OCc2cn(CCOCCOCCOCCOCCOCCn3cc(COC(=O)C4=C(C)NC(C)=C(C(=O)OCC)C4c4c(-c5ccccc5Br)noc4C)nn3)nn2)C1c1c(-c2ccccc2Br)noc1C (stereo not shown) [4b, 3-[1-(17-{4-[({4-[3-(o-Bromophenyl)-5-methyl-1,2-oxazol-4-yl]-5-(ethoxycarbonyl)-2,6-dimethyl-1,4-dihydropyridin-3-yl}carbonyloxy)methyl]-1H-1,2,3-triazol-1-yl}-3,6,9,12,15-pentaoxaheptadecan-1-yl)-1H-1,2,3-triazol-4-yl]methyl 5-ethyl 4-[3-(o-bromophenyl)-5-methyl-1,2-oxazol-4-yl]-2,6-dimethyl-1,4-dihydropyridine-3,5-dicarboxylate] | VGCC (IC50, nM) [2]: essentially abolished
